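How tested: cells in 96-well plates exposed to compound for 48 hours at five concentrations. GI50 marks 50% less growth.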 Active and inactive are the calls of the source. Rule as the data show it: active = GI50 up to about 1.1 µM and inactive = higher.
Legend:
Experiment in all cases: NCI anticancer screen, dose series, 48 h
[1] = system: DMS-273
[2] = system: XF498
[3] = system: RXF 631
[4] = system: HOP-18
[5] = system: KM-20L2
[6] = system: DMS-114
[7] = system: LXFL 529
[8] = system: DLD-1
[9] = system: SNB-78

Measured: GI50

COC(=O)C1=C(O)c2cc(OC)c(OC)cc2C(c2ccc(OC)c(OC)c2)C1 (stereo not drawn)
inactive: [1] 67.3 µM | [2] 94.6 µM | [3] 49.1 µM | [4] > 100 µM | [5] 86.7 µM | [6] > 100 µM | [7] 43.3 µM | [8] 44 µM | [9] > 100 µM

COC(=O)C1CC(C(=O)OC)c2nc3cc([N+](=O)[O-])ccc3nc21 (stereo not drawn)
inactive: [1] 44.5 µM | [2] > 96.6 µM | [3] > 73.3 µM | [4] > 100 µM | [5] 63.7 µM | [6] 16.3 µM | [7] 36.9 µM | [8] 31 µM | [9] > 100 µM

CC#C[I+]c1ccccc1
inactive: [1] 13.1 µM | [2] 16.7 µM | [3] 31.1 µM | [4] 16.6 µM | [5] 17 µM | [6] 13.2 µM | [7] 13.4 µM | [8] 14.3 µM | [9] 22.7 µM

CCOc1cccc2ccc[n+](CC)c12
inactive: [1] 35.8 µM | [2] 42.9 µM | [3] > 100 µM | [4] > 100 µM | [5] 52.2 µM | [6] 32.7 µM | [7] 54.7 µM | [8] > 100 µM

BrC1=CC=C2NC=CC3=CC=NC1C32 (stereo not drawn)
inactive: [1] 7.14 µM | [2] 22.9 µM | [3] 27.2 µM | [4] 14.1 µM | [5] 19.7 µM | [6] 14 µM | [7] 19.5 µM | [8] 19 µM | [9] 29.6 µM

O=C(O)CSc1nnc(Cc2ccccc2)[nH]1
inactive: [2] 15.7 µM | [3] > 100 µM | [4] > 100 µM | [6] > 100 µM | [7] > 100 µM | [8] > 100 µM | [9] > 100 µM

CC1=NN(C(=O)CC(=O)Nc2ccccc2)C(=O)C1/N=N/c1ccc(S(N)(=O)=O)cc1 (stereo not drawn)
inactive: [1] 63.5 µM | [2] 56.8 µM | [3] 91.6 µM | [4] > 100 µM | [5] > 100 µM | [6] 63.8 µM | [7] 81.7 µM | [8] 95.1 µM | [9] 88.9 µM

Cc1cc2c(=O)cc(-c3ccc(F)cc3)oc2c(C(=O)O)c1C
inactive: [1] > 100 µM | [2] > 100 µM | [3] > 100 µM | [4] > 100 µM | [5] > 100 µM | [6] > 100 µM | [7] > 100 µM | [8] > 100 µM | [9] > 100 µM

CC1(C)CC2CC(CC(C)(C)C2=O)C1=O
inactive: [1] > 100 µM | [2] > 100 µM | [3] > 100 µM | [4] > 100 µM | [5] > 100 µM | [6] > 100 µM | [7] > 100 µM | [8] > 100 µM | [9] > 100 µM

Source: ChEMBL document CHEMBL1201862, “PubChem BioAssay data set” (2004)
